Structures can show the parent of a compound that is named as a salt.

The test deals with T1, human ProRS (prolyl tRNA synthetase moiety of glutamyl prolyl tRNA synthetase, EPRS) (Homo sapiens, UniProt P07814).
T1 construct: The prolyl tRNA synthetase moiety (ProRS) in the cDNA of glutamyl prolyl tRNA synthetase was subcloned; 6xHis (N, cleaved yes); made in house; host or cells: E. coli BL21 (DE3)
T1 sequence (P07814 1007-1512 limits assumed): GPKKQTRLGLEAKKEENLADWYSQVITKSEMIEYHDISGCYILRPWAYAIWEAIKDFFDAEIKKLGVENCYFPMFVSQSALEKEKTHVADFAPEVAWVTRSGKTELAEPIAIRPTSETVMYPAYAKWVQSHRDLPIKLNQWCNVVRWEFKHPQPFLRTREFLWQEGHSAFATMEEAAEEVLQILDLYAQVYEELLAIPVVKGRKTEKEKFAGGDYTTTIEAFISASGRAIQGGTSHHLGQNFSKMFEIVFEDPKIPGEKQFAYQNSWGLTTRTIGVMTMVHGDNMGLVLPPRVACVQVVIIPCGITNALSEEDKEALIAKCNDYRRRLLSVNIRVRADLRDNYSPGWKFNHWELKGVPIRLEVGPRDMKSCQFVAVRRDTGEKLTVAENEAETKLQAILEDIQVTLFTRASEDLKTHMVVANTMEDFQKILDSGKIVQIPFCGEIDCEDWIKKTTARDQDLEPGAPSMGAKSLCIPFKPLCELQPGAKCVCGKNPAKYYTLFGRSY
Description: Assay for inhibitors of prolyl tRNA synthetase activity (ProRS assay, labeled proline incorporation). Type of test: biochemical. The note with it: human ProRS 20 nM, 10 min at 37° C.; read-out: EPRS IC50. The source says: In order to establish the activities of the compounds highlighted above, we determined extent of inhibition of prolyl tRNA synthetase activity in dose response curves to obtain IC50 values.
The prolyl tRNA synthetase moiety (ProRS) in the cDNA of glutamyl prolyl tRNA synthetase was subcloned, tagged with a single biotin, purified and used in the assay.
Briefly, human ProRS with a 6×N-terminal His tag in pET28N with TVMV BioP was transformed in E. coli BL21 (DE3) cells, selected, overexpressed and purified using a Ni Seph 6 FF XK 16/20 column in the first stage. Ni-NTA eluates were pooled and treated with TVMV protease, and biotinylated using d-Biotin, MgCl2, ATP and the BirA enzyme. This was rerun through a Ni column as before. The eluates were further enriched and purified using membrane ultrafiltration and a SuperDex 200 XK 16/60 column, and peak fractions were confirmed by SDS-PAGE prior to protein amount determination, aliquoting and storage at −80° C. • ProRS assay was performed in 96 well plates in a final reaction volume of 20 μl, using staggered additions of Tris-Cl (pH 7.5, 60 mM), dithiothreitol (2 mM), ATP (5 mM, pH 7.0), MgCl2 6 mM), ProRS (20 nM, with pre-determined active fraction range) and bovine tRNA (20 μg). Controls and compounds, at various concentrations (10 μM to 0.5 nM), were incubated on ice with enzyme mix for 15 min followed by addition of proline (non-labeled and labeled, 3.96 and 1.04 μM (1 μCi) respectively) to initiate the reaction. Reaction was carried out for 10 min at 37° C. and terminated by addition of TCA (10%, 100 μl). Reaction mix was collected on a Whatman GF/B filter using a vacuum filtration manifold. This filter was washed 3 times with 5% TCA followed by 2 washes with ethanol, air dried, and read using a liquid scintillation counter (TopCount NXT) using MicroScint O. IC50 values were calculated and analyzed using ToolSet (4-parameter plot) and depicted herein.
Turning to `O=C(C[C@H]1NCCC[C@@H]1O)Cn1cnc2cccc(-c3ccc(F)c(F)c3)c2c1=O` [Example 27, 5-(3,4-Difluorophenyl)-3-{3-[(2R,3S)-3-hydroxypiperidin-2-yl]-2-oxopropyl}quinazolin-4(3H)-one hydrochloride], the IC50 – broadly, the concentration that inhibits the measured activity by half – came out at 6 nM.

`O=C(C[C@H]1NCCC[C@@H]1O)Cn1cnc2cccc(-c3cccnc3)c2c1=O` [Example 28, 3-{3-[(2R,3S)-3-Hydroxypiperidin-2-yl]-2-oxopropyl}-5-(pyridin-3-yl)quinazolin-4(3H)-one dihydrochloride]: the IC50 amounted to 6 nM.

With `Cc1ccc(C(F)(F)F)c2c(=O)n(CC(=O)C[C@H]3NCCC[C@@H]3O)cnc12` [Example 29, 3-{3-[(2R,3S)-3-Hydroxypiperidin-2-yl]-2-oxopropyl}-8-methyl-5-(trifluoromethyl)quinazolin-4(3H)-one hydrochloride], the IC50 worked out at 313 nM.

For `Cc1cc(F)cc2c(=O)n(C[C@@H](O)C[C@H]3NCCC[C@@H]3O)cnc12` [Example 34, 6-Fluoro-3-{(S)-2-hydroxy-3-[(2R,3S)-3-hydroxypiperidin-2-yl]propyl}-8-methylquinazolin-4(3H)-one hydrochloride], the IC50 amounted to 183 nM.

For `Cl.[2H]C([2H])([2H])c1cc(Cl)cc2c(=O)n(C[C@@H](O)C[C@H]3NCCC[C@@H]3O)cnc12` [Example 35, 6-Chloro-3-{(S)-2-hydroxy-3-[(2R,3S)-3-hydroxypiperidin-2-yl]propyl}-8-(methyl-d3)quinazolin-4(3H)-one hydrochloride], the IC50 was found to be 32 nM.

For `Cc1c(Cl)ccc2c(=O)n(C[C@@H](O)C[C@H]3NCCC[C@@H]3O)cnc12` [Example 36, 7-Chloro-3-{(S)-2-hydroxy-3-[(2R,3S)-3-hydroxypiperidin-2-yl]propyl}-8-methylquinazolin-4(3H)-one hydrochloride], the IC50 was 429 nM.

For the compound `Cc1cc(Br)cc2c(=O)n(C[C@@H](O)C[C@H]3NCCC[C@@H]3O)cnc12` [Example 37, 6-Bromo-3-{(S)-2-hydroxy-3-[(2R,3S)-3-hydroxypiperidin-2-yl]propyl}-8-methylquinazolin-4(3H)-one hydrochloride], the IC50 was 62 nM.

Turning to `CCc1cc(Cl)cc2c(=O)n(C[C@@H](O)C[C@H]3NCCC[C@@H]3O)cnc12` [Example 38, 6-Chloro-8-ethyl-3-{(S)-2-hydroxy-3-[(2R,3S)-3-hydroxypiperidin-2-yl]propyl}quinazolin-4(3H)-one hydrochloride], the IC50 was 506 nM.

As to `Cc1cc(C)c2ncn(C[C@@H](O)C[C@H]3NCCC[C@@H]3O)c(=O)c2c1` [Example 39, 3-{(S)-2-Hydroxy-3-[(2R,3S)-3-hydroxypiperidin-2-yl]propyl}-6,8-dimethylquinazolin-4(3H)-one hydrochloride], the IC50 was determined as 158 nM.

Turning to `CCc1cc(C)c2ncn(C[C@@H](O)C[C@H]3NCCC[C@@H]3O)c(=O)c2c1` [Example 41, 6-Ethyl-3-{(S)-2-hydroxy-3-[(2R,3S)-3-hydroxypiperidin-2-yl]propyl}-8-methylquinazolin-4(3H)-one hydrochloride], the IC50 was found to be 23 nM.

As to `Cc1cc(OC(F)(F)F)cc2c(=O)n(C[C@@H](O)C[C@H]3NCCC[C@@H]3O)cnc12` [Example 42, 3-{(S)-2-Hydroxy-3-[(2R,3S)-3-hydroxypiperidin-2-yl]propyl}-8-methyl-6-(trifluoromethoxy)quinazolin-4(3H)-one hydrochloride], the IC50 worked out at 20 nM.

As to `Cc1cc(S(C)(=O)=O)cc2c(=O)n(C[C@@H](O)C[C@H]3NCCC[C@@H]3O)cnc12` [Example 43, 3-{(S)-2-Hydroxy-3-[(2R,3S)-3-hydroxypiperidin-2-yl]propyl}-8-methyl-6-(methylsulfonyl)quinazolin-4(3H)-one hydrochloride], the IC50 is 38 nM.

In the case of `Cc1cc(C(F)(F)F)cc2c(=O)n(C[C@@H](O)C[C@H]3NCCC[C@@H]3O)cnc12` [Example 44, 3-{(S)-2-Hydroxy-3-[(2R,3S)-3-hydroxypiperidin-2-yl]propyl}-8-methyl-6-trifluoromethyl)quinazolin-4(3H)-one hydrochloride], the IC50 was determined as 20 nM.

Source of the values: patent US20210163443A1, “Febrifugine Derivatives” (BRISTOL-MYERS SQUIBB COMPANY, priority 2019, published 2021).
